Format in all cases: functional
Experiment [1] has as its target T1, Kappa-type opioid receptor (Homo sapiens, UniProt P41145). The experiment in a line: SAR analysis of Antagonists of the Kappa Opioid Receptor (KOR) using an Image-Based Assay - Set 4. [Related pubchem assays (depositor defined):AID1777, AID1785].
In experiment [2] the target is Delta-type opioid receptor (Homo sapiens, UniProt P41143). Briefly: SAR Analysis of Antagonists of the DOR Receptor using an Image-Based Assay - Set 3. [Related pubchem assays (depositor defined):AID1777, AID1785].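 Also: U2OS cells expressing DOR1 and beta-arrestin GFP stimulated with 100 nM SNC80; imaging of GFP-tagged beta-arrestin moving into spots after receptor activation.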
Experiment [3] addresses T1, Kappa-type opioid receptor. The experiment in a line: SAR analysis of small molecule antagonists of the kappa opioid receptor via a luminescent beta-arrestin assay - Set 3. [Related pubchem assays (depositor defined):AID1777, AID1778, AID1785, AID1786, AID1966, AID2133, AID2136, AID2285, AID2495].
Experiment [4] deals with Mu-type opioid receptor (Homo sapiens, UniProt P35372). Briefly: SAR Analysis of Antagonists of the MOR Receptor using an Image-Based Assay - Set 3. [Related pubchem assays (depositor defined):AID1777, AID1785, AID1786, AID1966, AID2133, AID2136, AID2284, AID2285, AID2420].
For experiment [5], the system named is T-cell. The experiment in a line: inhibitors of CD8+ T cell–vesicle binding, dose response, mouse 2C CD8+ T cells, flow cytometry (AID 485284). On the technique in general: Flow cytometry measures light scatter and fluorescence of single cells or particles in a stream.
Experiment [6] concerns the target T2, Tyrosine-protein phosphatase non-receptor type 12 (Homo sapiens, UniProt Q05209).
T2 sequence (Q05209 whole entry): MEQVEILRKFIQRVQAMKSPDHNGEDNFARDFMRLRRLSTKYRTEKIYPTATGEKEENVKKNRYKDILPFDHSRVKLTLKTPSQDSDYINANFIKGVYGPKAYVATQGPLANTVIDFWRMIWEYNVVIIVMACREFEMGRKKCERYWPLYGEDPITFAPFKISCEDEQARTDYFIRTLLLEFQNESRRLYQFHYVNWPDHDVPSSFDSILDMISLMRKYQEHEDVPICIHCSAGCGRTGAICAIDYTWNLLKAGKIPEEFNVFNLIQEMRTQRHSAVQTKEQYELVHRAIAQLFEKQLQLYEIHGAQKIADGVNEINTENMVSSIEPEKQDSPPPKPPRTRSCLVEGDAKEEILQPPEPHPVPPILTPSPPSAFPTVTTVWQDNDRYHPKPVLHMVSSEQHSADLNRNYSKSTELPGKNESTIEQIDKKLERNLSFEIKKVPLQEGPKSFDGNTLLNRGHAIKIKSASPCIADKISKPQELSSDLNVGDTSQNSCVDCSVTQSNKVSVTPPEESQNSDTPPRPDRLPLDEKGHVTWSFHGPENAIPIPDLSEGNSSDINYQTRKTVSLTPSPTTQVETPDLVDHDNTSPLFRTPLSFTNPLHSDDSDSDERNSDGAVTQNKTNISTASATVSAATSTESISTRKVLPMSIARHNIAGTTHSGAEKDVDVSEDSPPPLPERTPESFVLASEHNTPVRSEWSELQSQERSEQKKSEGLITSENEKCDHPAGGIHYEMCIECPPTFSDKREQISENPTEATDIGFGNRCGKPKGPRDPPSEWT
Briefly: SAR Selectivity Analysis of small molecule inhibitors of PEST using pCAP in a fluorescence assay. [Related pubchem assays (depositor defined):AID1779, AID1784, AID2135].

Experiment [7] has as its target T3, Dual specificity protein phosphatase 6 (Rattus norvegicus, UniProt Q64346).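 Also: confirmatory in vitro dose-response testing of MKP-3 inhibition; recombinant His-tagged MKP-3 made in E. coli BL21 with OMFP substrate.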
T3 sequence (Q64346 whole entry): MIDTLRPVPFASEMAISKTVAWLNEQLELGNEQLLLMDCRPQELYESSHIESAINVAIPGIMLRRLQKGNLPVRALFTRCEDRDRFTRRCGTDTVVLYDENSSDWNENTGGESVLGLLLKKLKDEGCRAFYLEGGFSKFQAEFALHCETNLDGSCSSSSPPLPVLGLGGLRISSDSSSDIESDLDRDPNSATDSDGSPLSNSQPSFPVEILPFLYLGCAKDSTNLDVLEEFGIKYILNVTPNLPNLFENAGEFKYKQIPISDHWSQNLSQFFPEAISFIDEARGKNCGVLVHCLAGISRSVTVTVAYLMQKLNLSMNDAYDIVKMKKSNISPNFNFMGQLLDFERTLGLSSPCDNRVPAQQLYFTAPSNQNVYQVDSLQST

Experiment [8] concerns the target T4, Tyrosine-protein phosphatase non-receptor type 22 (Homo sapiens, UniProt Q9Y2R2).
T4 sequence (Q9Y2R2 whole entry): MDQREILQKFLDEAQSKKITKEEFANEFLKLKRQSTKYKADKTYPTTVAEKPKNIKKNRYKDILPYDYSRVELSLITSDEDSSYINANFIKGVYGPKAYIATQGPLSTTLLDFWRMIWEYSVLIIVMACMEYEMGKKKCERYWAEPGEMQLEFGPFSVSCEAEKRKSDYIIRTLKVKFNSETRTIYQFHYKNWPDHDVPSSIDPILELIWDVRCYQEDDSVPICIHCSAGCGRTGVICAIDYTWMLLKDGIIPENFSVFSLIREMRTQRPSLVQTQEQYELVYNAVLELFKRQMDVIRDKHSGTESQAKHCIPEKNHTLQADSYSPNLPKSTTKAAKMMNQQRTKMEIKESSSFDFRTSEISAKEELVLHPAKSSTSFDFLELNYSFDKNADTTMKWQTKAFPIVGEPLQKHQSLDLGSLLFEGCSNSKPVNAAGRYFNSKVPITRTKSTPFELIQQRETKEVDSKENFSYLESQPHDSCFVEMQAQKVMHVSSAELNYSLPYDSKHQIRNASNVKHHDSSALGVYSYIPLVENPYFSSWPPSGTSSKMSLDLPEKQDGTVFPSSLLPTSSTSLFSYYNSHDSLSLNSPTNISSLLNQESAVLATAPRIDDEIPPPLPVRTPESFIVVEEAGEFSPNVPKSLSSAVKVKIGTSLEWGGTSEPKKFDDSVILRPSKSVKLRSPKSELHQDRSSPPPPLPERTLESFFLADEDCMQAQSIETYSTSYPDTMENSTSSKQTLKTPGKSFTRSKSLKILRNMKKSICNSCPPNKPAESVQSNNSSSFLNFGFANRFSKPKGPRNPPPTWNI
The experiment in a line: SAR LYP1 Fluorescent Assay using OMFP substrate for In Vitro dose response studies - Set 3. [Related pubchem assays (depositor defined):AID1779, AID1784, AID2140, AID2686].

Experiment [9] has as its target T5, Tyrosine-protein phosphatase non-receptor type 7 (Homo sapiens, UniProt P35236).
T5 sequence (P35236 whole entry): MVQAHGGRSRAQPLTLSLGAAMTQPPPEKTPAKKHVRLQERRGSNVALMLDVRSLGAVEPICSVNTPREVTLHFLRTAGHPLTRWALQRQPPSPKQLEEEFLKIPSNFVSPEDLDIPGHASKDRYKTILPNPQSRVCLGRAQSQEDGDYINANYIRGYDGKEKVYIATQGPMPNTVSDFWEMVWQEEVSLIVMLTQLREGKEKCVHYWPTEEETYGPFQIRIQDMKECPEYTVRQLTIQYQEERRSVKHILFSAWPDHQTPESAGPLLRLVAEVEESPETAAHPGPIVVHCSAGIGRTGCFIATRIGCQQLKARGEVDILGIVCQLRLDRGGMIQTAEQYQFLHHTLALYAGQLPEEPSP
The experiment in a line: redox-dependent HePTP inhibition, mechanism study, biochemical, fluorescence (AID 2068).

In experiment [10] the target is Dual specificity protein phosphatase 3 (Homo sapiens, UniProt P51452). The experiment in a line: SAR VHR1 Fluorescent Assay for In Vitro dose response studies Set 2. [Related pubchem assays (depositor defined):AID1654, AID1661, AID1878].
Experiment [11] concerns the target T4, Tyrosine-protein phosphatase non-receptor type 22. Briefly: LYP (PTPN22) phosphatase inhibitor potency, SAR follow-up, biochemical, pCAP fluorogenic substrate, fluorescence, set 3 (AID 449727).

Active and inactive are the calls of the source. Bounds are passed on as bounds.

One may read the IC50 as the point on the concentration scale where inhibition reaches its midpoint. By EC50 is commonly meant the concentration that produces a half-maximal response.

T1 sequence (P41145 whole entry): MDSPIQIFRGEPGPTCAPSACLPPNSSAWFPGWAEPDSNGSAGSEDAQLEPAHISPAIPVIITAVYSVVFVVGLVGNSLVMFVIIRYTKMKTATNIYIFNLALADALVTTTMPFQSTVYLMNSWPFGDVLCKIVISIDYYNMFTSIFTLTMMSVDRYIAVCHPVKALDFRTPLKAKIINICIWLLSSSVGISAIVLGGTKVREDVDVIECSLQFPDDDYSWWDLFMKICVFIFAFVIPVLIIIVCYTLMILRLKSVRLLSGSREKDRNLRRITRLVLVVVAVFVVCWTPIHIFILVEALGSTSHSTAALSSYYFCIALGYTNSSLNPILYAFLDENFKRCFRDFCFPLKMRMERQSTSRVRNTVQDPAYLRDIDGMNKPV
Sequence of Dual specificity protein phosphatase 3 (P51452 whole entry): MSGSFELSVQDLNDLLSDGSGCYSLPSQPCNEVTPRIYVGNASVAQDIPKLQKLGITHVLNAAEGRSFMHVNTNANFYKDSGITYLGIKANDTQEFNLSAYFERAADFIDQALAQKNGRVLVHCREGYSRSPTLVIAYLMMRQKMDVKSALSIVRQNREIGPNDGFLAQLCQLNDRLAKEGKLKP
Sequence of Mu-type opioid receptor (P35372 whole entry): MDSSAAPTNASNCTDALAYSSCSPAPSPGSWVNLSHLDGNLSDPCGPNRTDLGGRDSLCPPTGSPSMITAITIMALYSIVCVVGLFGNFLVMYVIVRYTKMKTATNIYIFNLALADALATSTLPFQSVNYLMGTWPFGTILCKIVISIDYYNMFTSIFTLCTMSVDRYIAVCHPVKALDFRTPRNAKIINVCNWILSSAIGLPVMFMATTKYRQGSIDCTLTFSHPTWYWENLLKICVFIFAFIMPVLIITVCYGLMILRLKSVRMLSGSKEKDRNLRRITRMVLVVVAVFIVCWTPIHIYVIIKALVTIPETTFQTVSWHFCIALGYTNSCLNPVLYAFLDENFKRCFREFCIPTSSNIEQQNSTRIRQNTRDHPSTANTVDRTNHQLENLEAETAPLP
Sequence of Delta-type opioid receptor (P41143 whole entry): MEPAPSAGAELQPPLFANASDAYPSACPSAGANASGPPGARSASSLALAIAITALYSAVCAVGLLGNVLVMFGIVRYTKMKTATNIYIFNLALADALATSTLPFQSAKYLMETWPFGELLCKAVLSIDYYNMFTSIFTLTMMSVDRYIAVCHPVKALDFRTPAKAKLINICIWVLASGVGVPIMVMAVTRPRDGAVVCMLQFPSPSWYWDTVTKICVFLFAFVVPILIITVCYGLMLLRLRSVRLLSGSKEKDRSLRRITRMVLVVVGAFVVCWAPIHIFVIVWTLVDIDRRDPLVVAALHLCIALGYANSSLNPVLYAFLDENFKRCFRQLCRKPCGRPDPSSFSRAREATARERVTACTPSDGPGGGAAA

For the molecule `O=C(NCCN(Cc1ccccc1)Cc1ccccc1)c1ccc(CNS(=O)(=O)c2ccccc2)cc1`, the IC50 in experiment [1] was > 32 µM (inactive); in [2], > 32 µM (inactive); in experiment [3] it was > 20 µM (inactive); in experiment [4], > 32 µM (inactive).
With `O=C(OCCOc1cccc(Cl)c1)c1ccc(F)c(S(=O)(=O)N2CCOCC2)c1`, the EC50 in experiment [5] was 12.4 µM (active).
For `COc1cc(/C=C2\SC(=O)N(CC(=O)Nc3cccc(C)c3)C2=O)cc(Cl)c1OCC(=O)O`, the IC50 in experiment [6] is 2.2 µM (active); in experiment [7], > 100 µM (inactive); in [8], 4.96 µM (active); in experiment [9], 3.63 µM (active); in experiment [10], 17.9 µM (active); in experiment [11] it was 3.69 µM (active).
